This is an account of results in patent US20040235761A1, “Novel virus proliferaton inhibition/virucidal method and novel pyradine nucleotide/pyradine nucleoside analogue” (priority 2001, published 2004).

For series [1], the system named is bovine diarrhea virus (BVDV) NADL. As to the kind of experiment: Anti-BVDV effect (plaque inhibition in MDBK cells). The series is classed as cell-based. Particulars: Bovine viral diarrhea virus isolates and strains, 72 h, 100 μg/mL test compound, 70 PFU/well, 3 days, read-out: Inhibition rate (plaque inhibition rate). As to the method:
MDBK cells that had fully grown in a 6-well culture plate were infected with bovine diarrhea virus (BVDV) NADL at 70 PFU/well. After 60 minutes, the infection solution was removed, and a test culture solution (E′-MEM) containing 5% horse serum and 1% agar (SeaPlaque Agar) that contained a 100 μg/mL test compound was added thereto. The mixture was fully solidified and then cultured for 3 days under conditions of 37° C., a humidity of 100% and 5% CO2. After completion of the culture, the test plate was fixed with a 3% formaldehyde solution, and the agar medium was removed with running water, followed by staining with a 1% crystal violet solution, so as to count the number of plaques. The plaque inhibition rate was expressed by the percentage obtained by comparing with a control to which no test compounds were added.

For series [2], the system named is influenza virus A/PR/8/34. Kind of series: Anti-influenza effect (plaque inhibition in MDCK cells). The series is classed as cell-based. As to conditions: PR/8, MDCK, 72 h, read-out: Inhibition rate (plaque inhibition rate).
In series [3] the test system is MDCK cells. As to the kind of experiment: Detection of deprotected compound in cell (Test Example 2). The series is classed as in vitro ADME. As to conditions: 37° C., 1 hour, HPLC. As to the method:
The compound of Example 2 was added to MDCK cells suspended in a Hank's balanced salt solution, and the mixture was incubated at 37° C. for 1 hour. Thereafter, the obtained product was layered on silicon oil (KF-99), followed by centrifugation at 4° C. Cell fractions from the precipitate were suspended and frozen-thawed in a mobile phase indicated below, and the obtained solution was analyzed under the HPLC analysis conditions indicated below.

Series [4] addresses human RNA polymerase (Hela cell nucleus extract) (Homo sapiens, UniProt P24928+P30876). Kind of series: Human RNA polymerase inhibition test. The series is classed as biochemical. As to conditions: 30° C., 1 hour, read-out: 50% inhibition concentration. As to the method:
A Hela cell nucleus extract (Promega) was used as human RNA polymerase for the test. The pCMP script was cleaved with restriction enzymes and then purified, and it was used as a DNA template for the test.
Each of the test compounds with different concentrations was added to a reaction buffer (Hela cell nucleus extract, 3 mM MgCl2, 0.4 mM each of ATP, UTP and CTP, 0.016 mM GTP, 16 μg/mL DNA template, 0.4 mCi/mL [α-^32P]GTP), followed by incubation at 30° C. for 1 hour. After completion of the reaction, the reaction solution was dropped on a DE81 filter, and the filter was then washed with 5% Na2HPO4 solution 3 times for 30 minutes, and then with distilled water once for 1 minute. The filter was dried, and scintillation cocktail was added thereto. The radioactivity was determined using a liquid scintillation counter. The measurement value was given as a 50% inhibition concentration, providing that a group in which no test compounds were added was defined as 100%.

In series [5] the target is T1, Influenza virus polymerase (crude enzyme from virus particles) (Influenza A virus, UniProt P03431).
T1 construct: these particles were used as polymerase crude enzymes; from tissue; host or cells: influenza virus particles lysed with Triton N101/LPC (crude enzyme)
Kind of series: Polymerase inhibition test (influenza virus). The series is classed as biochemical. As to conditions: 30° C., 60 minutes, 32P-GTP incorporation, read-out: 50% inhibition concentration. As to the method:
Influenza virus particles were treated with a dissolving solution (100 mM Tris-HCl (pH 8), 100 mM KCl, 5 mM MgCl2, 1.5 mM DTT, 5% glycerol, 1.5% Triton N101, 1% LPC), and these particles were used as polymerase crude enzymes. Each of the test compounds with different concentrations was added to a reaction buffer (100 mM Tris-HCl (pH 8.0), 100 mM KCl, 5 mM MgCl2, 1 mM DTT, 0.25% Triton N101, 0.25 mM ApG, 0.1 mM ATP, 0.05 mM CTP, 0.05 mM UTP, 0.0005 mM GTP, ^32P-GTP, crude enzyme), followed by incubation at 30° C. for 60 minutes. Thereafter, 10% trichloroacetic acid (TCA) was added thereto, and the mixture was retained on ice for 60 minutes. Thereafter, it was dropped on a GF/C filter, and the filter was then washed with 5% TCA. The filter was dried, and scintillation cocktail was added thereto. The radioactivity was determined using a liquid scintillation counter. The measurement value was given as a 50% inhibition concentration, providing that a group in which no test compounds were added was defined as 100%.

Series [6] deals with T2, HCV polymerase (NS5B region of hepatitis C virus) (Hepatitis C virus genotype 1a, UniProt P27958).
T2 construct: The NS5B region of hepatitis C virus was produced in Escherichia coli; made in house; host or cells: Escherichia coli
Kind of series: Polymerase inhibition test (hepatitis C virus). The series is classed as biochemical. Particulars: NS5B produced in Escherichia coli, 30° C., 2 hours; read-out: 50% inhibition concentration. As for the experimental part: The NS5B region of hepatitis C virus was produced in Escherichia coli, and it was used as HCV polymerase for the test. The sequence of the 3′-region of HCV was prepared by the in vitro transcription method, and it was used as an RNA template for the test.
Each of the test compounds with different concentrations was added to a reaction buffer (20 mM Tris-HCl (pH 8.0), 0.05 mM MnCl2, 1 mM DTT, 20 units RNase inhibitor, [α-^32P]GTP, 0.05 mM each of ATP, CTP and UTP, and 2 μg/mL RNA template), followed by incubation at 30° C. for 2 hours. Thereafter, 10% TCA was added to terminate the reaction. Thereafter, the reaction solution was dropped on a DE81 filter, and the filter was then washed with 5% TCA. The filter was dried, and scintillation cocktail was added thereto. The radioactivity was determined using a liquid scintillation counter. The measurement value was given as a 50% inhibition concentration, providing that a group in which no test compounds were added was defined as 100%.

The conditions of series [7]: mouse, in vivo, 300 mg/kg. As to the method:
Compound A was administered into the caudal vein of a mouse at a dose of 300 mg/kg. 30 minutes after the administration, 1.6 g of the liver was excised, and it was then ground under ice cooling, while adding thereto 22.5 mL of 70% methanol that had been cooled to −20° C., so that compound A and a phosphate(s) form were extracted. 10 mL of the supernatant of the extract centrifuged at 4° C. for 10 minutes was purified under the condition indicated below, using a solid extraction cartridge (Varian BOND ELUT SAX HF 2 g/12 mL; eluted with 0.01 M to 1.0 M KCl) pretreated with 12 mL of methanol and 12 mL each of 1.0 M and 0.005 M KCl.
The phosphate form contained in 5 mL of No. 3 0.05 M KCl eluate and a synthetic monophosphate compound (a compound obtained in Reference Example 30) were identical in terms of HPLC retention time and UV spectrum in HPLC analysis (HPLC-1) described in HPLC conditions. In addition, the phosphate form contained in 5 mL of No. 1 0.5 M KCl eluate and a synthetic diphosphate compound (a compound obtained in Reference Example 31) were identical in terms of HPLC retention time in HPLC analysis (HPLC-2) described in HPLC conditions. […]

The next series deals with MDBK cells. Kind of series: Detection of triphosphate compound in cell by addition of compound A. The series is classed as in vitro ADME. As to conditions: 37° C., 24 hours. As to the method: 10 ml of an E′-MEM culture medium (containing 0.5% fetal bovine serum) containing compound A was added to MDBK cells that had been monolayer-cultured on a 55 cm^2 culture plate. After completion of culture under conditions of 37° C. and 5% CO2 for 24 hours, the culture was removed using a cell scraper, and the culture medium was removed by centrifugation. Thereafter, 5% trichloroacetic acid was added to the obtained cell fractions, so that a converted compound was extracted. An equal amount of 20% trioctylamine-containing pentane was added to the extract, and the obtained water layer was then concentrated using a centrifugal concentrator. In the above concentrate, a component whose HPLC retention time matches that of a synthetic compound of triphosphates (a compound obtained in Reference Example 22) was detected.

The nature of series [8]: Stability during the process of pharmaceutical preparation. The series is classed as physicochemical. As to conditions: compared with anhydrides.
For series [9], the system named is MDCK cells. Kind of series: Detection of phosphate compound in cell (Test Example 1). As to conditions: 35° C., 20 hours, HPLC with radioactivity detector. The series is classed as in vitro ADME. As for the experimental part:
5 ml of an E′-MEM culture medium (containing 1% bovine serum albumin and 3% vitamin solution) containing a compound, 6-fluoro-3-hydroxy-2-[2-^14C]pyrazinecarboxamide, which ha-d been ^14C-labeled at position 2 of the pyrazine ring, was added to MDCK cells that had been monolayer-cultured on a 55 cm^2 culture plate. After completion of culture under conditions of 35° C. and 5% CO2 for 20 hours, 6-fluoro-3-hydroxy-2-[2-^14C]pyrazinecarboxamide and a converted compound were extracted from cell fractions, using a 66.6% acetonitrile solution. The extract was lyophilized and concentrated, and then analysis was carried out under the HPLC analysis conditions indicated below.

A word on the inhibition: it is the drop in the measured response relative to a control, in per cent. Take `CC(C)(C)C(=O)SCCOP(=O)(OCCSC(=O)C(C)(C)C)OC[C@H]1O[C@@H](n2ccnc(C(N)=O)c2=O)[C@H](O)[C@@H]1O` [Example 2, 2,2-dimethyl-thiopropionic acid S-(2-[[(2R,3S,4R,5R)-5-(3-carbamoyl-2-oxo-2H-pyrazine-1-yl)-3,4-dihydroxy-tetrahydro-furan-2-ylmethoxy]-[2-(2,2-dimethyl-propionylsulfanyl)-ethoxy]-phosphoryloxy]-ethyl) ester]: the inhibition at 100 µg/mL in [1] and in series [2] was 100% in each case. In addition, the “monophosphate as deprotected compound in cell fractions” value in the series with MDCK cells [3] is listed as “detected”.
With `NC(=O)c1nccn([C@@H]2O[C@H](COP(=O)(O)OP(=O)(O)OP(=O)(O)O)C[C@H]2O)c1=O` [Reference Example 25, {(2S,4R,5R)-5-[3-(aminocarbonyl)-2-oxo-1(2H)-pyrazinyl]-4-hydroxytetrahydro-2-furanyl} methyl triphosphate], the IC50 in series [4] was more than 200000 nM; in series [5], 28000 nM; in series [6], 1600 nM.
In the same order, the values of `NC(=O)c1nccn([C@@H]2O[C@H](COP(=O)(O)OP(=O)(O)OP(=O)(O)O)[C@@H](O)[C@H]2O)c1=O` [Reference Example 22, {(2R,3S,4R,5R)-5-[3-(aminocarbonyl)-2-oxo-1(2H)-pyrazinyl]-3,4-dihydroxytetrahydro-2-furanyl} methyl triphosphate] are more than 200000 nM, 76 nM and 88 nM.
For `NC(=O)c1nccn([C@@H]2O[C@H](CO)[C@@H](O)[C@H]2O)c1=O` [Example 29, 4-[(2R,3R,4S,5R)-3,4-dihydroxy-5-(hydroxymethyl)tetrahydro-2-furanyl]-3-oxo-3,4-dihydro-2-pyrazinecarboxamide], the “conversion into phosphate forms in the liver” value in [7] is “converted in vivo into a monophosphate, then into a diphosphate form, and then into a triphosphate”. For the same molecule, the “component whose HPLC retention time matches the synthetic triphosphate (Reference Example 22) in cell extract” value in the series on MDBK cells is “detected”. Further, the inhibition at 100 µg/mL in series [1] and in series [2] was 100% throughout.
As for `NC(=O)c1nccn([C@@H]2O[C@H](CO)[C@@H](O)[C@H]2O)c1=O.O` [Example 29 (2), 4-[(2R,3R,4S,5R)-3,4-dihydroxy-5-(hydroxymethyl)tetrahydro-2-furanyl]-3-oxo-3,4-dihydro-2-pyrazinecarboxamide monohydrate], the “stability during the process of pharmaceutical preparation” value in series [8] is listed as “excellent stability”.
With `NC(=O)[14c]1nc(F)cnc1O` [6-fluoro-3-hydroxy-2-[2-^14C] pyrazinecarboxamide], in the series on MDCK cells [9], the “monophosphate (Reference Example 15) and triphosphate (Reference Example 16) in cell fractions” value is reported as “detected”.
